Article PMC8333425, “Discovery of a dual Ras and ARF6 inhibitor from a GPCR endocytosis screen” (Nature Communications, 2021)
“And” between values parts separate entries of the source, which are not always exact repeats. Equal values may be shown once.

Target: T1, β-arrestin/AP-2 complex (Homo sapiens, UniProt P63010)
T1 construct: expressed in transfected cells; host or cells: HEK293SL
T1 sequence (P63010 1-937): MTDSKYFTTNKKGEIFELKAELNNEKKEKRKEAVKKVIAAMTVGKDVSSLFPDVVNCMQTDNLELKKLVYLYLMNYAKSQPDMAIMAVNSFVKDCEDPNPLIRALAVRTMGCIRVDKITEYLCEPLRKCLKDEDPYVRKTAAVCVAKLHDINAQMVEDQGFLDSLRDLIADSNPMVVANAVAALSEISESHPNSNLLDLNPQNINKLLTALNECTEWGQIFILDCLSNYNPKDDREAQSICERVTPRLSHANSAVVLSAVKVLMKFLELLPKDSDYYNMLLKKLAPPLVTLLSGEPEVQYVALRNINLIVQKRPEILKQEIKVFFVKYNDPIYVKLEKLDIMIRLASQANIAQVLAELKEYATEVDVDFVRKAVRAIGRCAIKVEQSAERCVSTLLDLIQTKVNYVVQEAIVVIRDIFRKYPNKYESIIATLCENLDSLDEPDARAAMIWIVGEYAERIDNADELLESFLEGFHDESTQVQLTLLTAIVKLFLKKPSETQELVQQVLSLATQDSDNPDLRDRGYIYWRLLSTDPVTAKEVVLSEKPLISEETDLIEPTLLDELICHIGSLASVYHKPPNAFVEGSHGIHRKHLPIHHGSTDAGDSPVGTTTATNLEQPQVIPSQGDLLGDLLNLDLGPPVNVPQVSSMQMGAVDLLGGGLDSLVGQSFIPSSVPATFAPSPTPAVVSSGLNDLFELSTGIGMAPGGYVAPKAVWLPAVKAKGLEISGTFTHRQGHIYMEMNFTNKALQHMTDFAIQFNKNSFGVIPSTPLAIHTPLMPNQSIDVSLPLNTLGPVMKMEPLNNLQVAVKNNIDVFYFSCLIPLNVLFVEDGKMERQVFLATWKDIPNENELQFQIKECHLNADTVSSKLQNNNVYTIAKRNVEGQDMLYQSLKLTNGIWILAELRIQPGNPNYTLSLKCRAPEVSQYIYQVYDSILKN
Test: BRET sensor of β-arrestin2 binding to AP-2 (β2-Adaptin-YFP), AT1R-mediated
Format: cell-based
Details: for AngII-promoted BRET, binding of β-arrestin2 to AP-2: individual experiments
Experimental: HEK293 cells were transfected with a BRET sensor that monitors the interaction between β-arrestins and the β-appendage of AP-2 (Fig. 2a)[26],[33]. […] The small GTPase ARF6, which binds β-arrestins and facilitates AP-2 and clathrin recruitment at the PM, is also necessary for CCPs initiation and receptor internalization. Therefore, ARF6 activity was assessed using the protein-3 binding domain (PBD) of the golgi-associated, gamma adaptin ear-containing, ARF-binding protein 3 (GGA3) fused to GST (GST-GGA3-PBD) in a pull-down assay, which allows the detection of GTP-bound ARF6 in cells[34] (Fig. 2b). […] This inhibition was selective for ARF6 since 21 had no effect on AT1R-dependent ARF1 activation (Supplementary Fig. 2a). We also devised a BRET assay to quantitatively assess 21’s action on ARF activity. The ARF BRET assay was created using the GGA3-PBD fused to RlucII (GGA3-PBD-RlucII) and the rGFP anchored at the PM (rGFP-CAAX) (Supplementary Fig. 3a). […] 21 blocked ARF’s activation by 40–60% following AT1R stimulation (Fig. 2c).
HEK293SL cells were seeded at a density of 7.5 × 10^5 cells per 100-mm dish and 24 h later, transiently transfected as such. For receptor internalization experiments, cells were transfected with 0.12 μg AT1R-RlucII, B2R-RlucII, or β2AR-RlucII and 0.48 μg of either rGFP-CAAX (to assess removal from the PM) or rGFP-FYVE (to assess accumulation in the endosomes). For β-arrestin recruitment assays, cells were transfected with 0.48 μg of receptor-YFP along with 0.12 μg of β-arrestin-RlucII. For β-arrestin/AP-2 binding experiments, cells were transfected with 1 μg Flag-AT1R, 1 μg β2-Adaptin-YFP, and 0.12 μg β-arrestin2-RlucII. For G protein activation, cells were transfected with 3 μg of sp-Flag-AT1R along with either 4.5 μg of the Gαq-polycistronic BRET sensor or 0.24 μg of the Gαi3-RlucII and 0.6 μg of GFP10-Gγ2 and Gβ1 sensors or 0.12 μg PKN-RBD-RlucII and 0.48 μg of rGFP-CAAX. For PKC activation, cells were transfected with 3 μg of sp-Flag-AT1R and 0.18 μg of the PKC sensor. For GTPase activation experiments, cells were transfected with 1 μg Flag-AT1R, 0.48 μg of rGFP-CAAX, and either 0.12 μg of GGA3-PBD-RlucII, PAK-CRIB-RlucII or Raf-RBD-RlucII. For biosensor validation experiments, cells were additionally transfected with 500 ng Flag-K-Ras-WT, Flag-K-Ras-G12V, Flag-K-Ras-SOS-CAAX, HA-ARF6-WT, HA-ARF6-T27N, Myc-Rac1-WT, Myc-Rac1-Q61L or Myc-Rac1-T17N. For PI3K/Akt activation experiments, cells were transfected with 0.48 μg of rGFP-CAAX and 0.12 μg of Akt (PH)-RlucII. After 18 h of transfection, the media was replaced and cells were divided for subsequent experiments. Cells were detached and seeded onto poly-L-ornithine-coated 96-well flat white bottom plates (BrandTech Scientific) at a density of 2.5 × 10^4 cells per well in media. The next day, cells were washed once with Tyrode’s buffer (140 mM NaCl, 2.7 mM KCl, 1 mM CaCl2, 12 mM NaHCO3, 5.6 mM D-glucose, 0.5 mM MgCl2, 0.37 mM NaH2PO4, 25 mM HEPES, pH 7.4) and left in Tyrode’s buffer. For kinetics of β-arrestin recruitment or β-arrestin binding to receptor and AP-2 experiments, cells were serum starved for 30 min, pretreated with 21 (50 µM) or Barbadin (100 µM) for 30 min, stimulated with 100 nM AngII or 1 µM BK and BRET signals were monitored at indicated times using a Victor X Light plate reader (PerkinElmer). Coelenterazine H (final concentration of 5 µM) was added 3–5 min prior to BRET measurements. Filter set was 460/80 nm and 535/30 nm for detecting the RlucII Renilla luciferase (donor) and YFP (acceptor) light emissions, respectively. The BRET ratio was determined by calculating the ratio of the light emitted by YFP over the light emitted by the RlucII. For G protein activation, cells were serum starved, pretreated with compounds for 30 min, stimulated with 100 nM AngII for 2 min (Gαq, Gαi3, and Rho sensors) or 5 min (PKC sensor). […]

AngII-promoted BRET, binding of β-arrestin2 to AP-2 (AngII + Barbadin (100 μM), time 0 min) | AngII-promoted BRET, binding of β-arrestin2 to AP-2 (AngII + Barbadin (100 μM), time 2 min) | AngII-promoted BRET, binding of β-arrestin2 to AP-2 (AngII + Barbadin (100 μM), time 4 min) | AngII-promoted BRET, binding of β-arrestin2 to AP-2 (AngII + Barbadin (100 μM), time 8 min) | AngII-promoted BRET, binding of β-arrestin2 to AP-2 (AngII + Barbadin (100 μM), time 12 min) | AngII-promoted BRET, binding of β-arrestin2 to AP-2 (AngII + Barbadin (100 μM), time 20 min) | AngII-promoted BRET, binding of β-arrestin2 to AP-2 (AngII + Barbadin (100 μM), time 24 min) | inhibition of the formation of the β-arrestin/AP-2 complex mediated by AT1R (Barbadin 100 µM) | Compound | inhibition at 50 µM (21 at 50 µM, read-out: inhibition of the AngII-mediated β-arrestin/AP-2 complex formation) | AngII-promoted BRET, binding of β-arrestin2 to AP-2 (AngII + Comp 21 (50μM), time 0 min) | AngII-promoted BRET, binding of β-arrestin2 to AP-2 (AngII + Comp 21 (50μM), time 2 min) | AngII-promoted BRET, binding of β-arrestin2 to AP-2 (AngII + Comp 21 (50μM), time 4 min) | AngII-promoted BRET, binding of β-arrestin2 to AP-2 (AngII + Comp 21 (50μM), time 8 min) | AngII-promoted BRET, binding of β-arrestin2 to AP-2 (AngII + Comp 21 (50μM), time 12 min) | AngII-promoted BRET, binding of β-arrestin2 to AP-2 (AngII + Comp 21 (50μM), time 20 min) | AngII-promoted BRET, binding of β-arrestin2 to AP-2 (AngII + Comp 21 (50μM), time 24 min)
0 | 0.00931 and 0.01844 and 0.00859 | 0.01939 and 0.02951 and 0.01857 | 0.01773 and 0.0324 and 0.02267 | 0.01829 and 0.0336 and 0.02027 | 0.02374 and 0.03345 and 0.02061 | 0.01867 and 0.03563 and 0.02365 | more than 50% | Nn1cnc2scc(-c3ccc(Cc4ccccc4)cc3)c2c1=O [Barbadin, reference compound] | – | – | – | – | – | – | – | –
– | – | – | – | – | – | – | – | CC(C)C(=O)N1CCN(c2ccc(NC(=O)c3cc4ccccc4o3)cc2Cl)CC1 [Compound 21] | ≤ 20% | 0 | 0.0291 and 0.02266 and 0.02708 | 0.03981 and 0.03342 and 0.03976 | 0.0471 and 0.04211 and 0.04647 | 0.04695 and 0.03931 and 0.04772 | 0.04571 and 0.04297 and 0.04991 | 0.04875 and 0.04367 and 0.04987
